The nature of data set [1]: Solubility of the compound in pH 7 phosphate buffer. The data set is classed as physicochemical.
Data set [2] is described as follows: Cmax in C57BL/6 mouse at 1 mg/kg, iv and 2 mg/kg, po. The data set is classed as ADME, organism-based. Also on record: dose 2 mg/kg. The settings on record: in vivo.
The nature of data set [3]: Dose normalized AUC in C57BL/6 mouse at 2 mg/kg, po. The data set is classed as ADME, organism-based. The settings on record: in vivo.
Data set [4] in a line: Total clearance in C57BL/6 mouse in whole blood at 1 mg/kg, iv. The data set is classed as ADME, organism-based.
Data set [5] is described as follows: Half life in C57BL/6 mouse at 1 mg/kg, iv. Type of data set: ADME, organism-based. The settings on record: in vivo.
Data set [6] is described as follows: Oral bioavailability in C57BL/6 mouse at 2 mg/kg. The data set is classed as ADME, organism-based. The settings on record: in vivo.
Data set [7] in a line: Lipophilicity, logD of the compound at pH 7.3 by HPLC analysis. The settings on record: buffer. The data set is classed as physicochemical.
The nature of data set [8]: Solubility of the compound in pH 7 phosphate buffer by shake-flask method. The data set is classed as physicochemical.
Data set [9] in a line: Dose normalized AUC in CD1 mouse at 1 mg/kg, iv and 2 mg/kg, po. The data set is classed as ADME, organism-based. The settings on record: in vivo.
Data set [10] in a line: MRT in CD1 mouse at 1 mg/kg, iv and 2 mg/kg, po. Type of data set: ADME, organism-based. The settings on record: in vivo.
Data set [11] can be described thus: Clearance in CD1 mouse at 1 mg/kg, iv and 2 mg/kg, po. Type of data set: ADME, organism-based. The settings on record: in vivo.
A short description of data set [12]: Volume of distribution at steady state in CD1 mouse at 1 mg/kg, iv and 2 mg/kg, po. The settings on record: in vivo, read-out: Vdss. Type of data set: ADME, organism-based.
Data set [13] in a line: Bioavailability in CD1 mouse at 1 mg/kg, iv and 2 mg/kg, po. The data set is classed as ADME, organism-based. The settings on record: in vivo.
A short description of data set [14]: Metabolic stability in liver microsomes (unknown origin). Type of data set: ADME, Microsome.
Data set [15] in a line: Terminal half life in C57BL/6-transgenic mouse expressing human CETP at 100 mg/kg, po qd treated for 7 days measured for 240 hrs. Type of data set: ADME, organism-based. The settings on record: C57BL/6-transgenic expressing human CETP, in vivo, time 7 day, read-out: beta t1/2 (converted).
The nature of data set [16]: Half life in C57BL/6 mouse at 0.6 mg/kg, iv. The data set is classed as ADME, organism-based. The settings on record: in vivo.
Data set [17] in a line: Terminal half life in C57BL/6-transgenic mouse expressing human CETP at 200 mg/kg, po qd treated for 7 days measured for 240 hrs. Type of data set: ADME, organism-based. The settings on record: in vivo, 168 h, time 7 day.
Data set [18] can be described thus: Terminal half life in DIO NFR-transgenic mouse plasma at 100 mg/kg, po once daily for 14 days. Type of data set: ADME, organism-based. The settings on record: time 14 day, read-out: beta t1/2 (converted).
Data set [19] can be described thus: Terminal half life in DIO NFR-transgenic mouse liver at 100 mg/kg, po once daily for 14 days. Type of data set: ADME, organism-based. The settings on record: in vivo, time 14 day.
The nature of data set [20]: Terminal half life in DIO NFR-transgenic mouse adipose tissue at 100 mg/kg, po once daily for 14 days. Type of data set: ADME, organism-based. The settings on record: in vivo, time 14 day.
The nature of data set [21]: Terminal half life in DIO NFR-transgenic mouse plasma at 30 mg/kg, po once daily for 14 days. The settings on record: time 14 day, read-out: beta t1/2 (converted). The data set is classed as ADME, organism-based.
A short description of data set [22]: Terminal half life in DIO NFR-transgenic mouse liver at 30 mg/kg, po once daily for 14 days. Type of data set: ADME, organism-based. The settings on record: time 14 day, read-out: beta t1/2 (converted).
A short description of data set [23]: Terminal half life in DIO NFR-transgenic mouse adipose tissue at 30 mg/kg, po once daily for 14 days. The settings on record: time 14 day, read-out: beta t1/2 (converted). Type of data set: ADME, organism-based.

Values after ≈ are worked out from the molar mass of the structure shown.

As for `COc1ccc(C(C)C)cc1-c1ccc(C(F)(F)F)cc1CN1C(=O)O[C@H](c2cc(C(F)(F)F)cc(C(F)(F)F)c2)[C@@H]1C`, in data set [1], the solubility (in general, how much of the substance goes into solution per volume) was below 1 µM. Also, in data set [2], the maximum concentration (Cmax) (commonly the peak of the concentration-time curve) was 160 nM. This molecule showed an AUC/dose in data set [3] of 0.29 µM·kg·h/mg. This molecule yielded a clearance in [4] of 19 mL/min/kg. For the same molecule, in data set [5], the half-life was 4.9 h. The bioavailability in data set [6] came to 17%. The logD (as a rule, lipophilicity at a set pH, counting ionised and neutral species) in data set [7] is above 6.9. Besides, the solubility (thermodynamic) (commonly solubility found after equilibrating the solid with the medium) in data set [8] was below 2 µM.
In data set [7], `COc1cc(F)c(-c2ccc(C(=O)O)cc2C)cc1-c1ccc(C(F)(F)F)cc1[C@@H]1CC[C@H]2[C@@H](c3cc(C(F)(F)F)cc(C(F)(F)F)c3)OC(=O)N12` gave a logD of 5.5. In addition, in [9], the AUC/dose was determined as 3.4 µM·h. The MRT (in general, a mean duration of stay, worked out from the concentration-time curve) in data set [10] turned out to be 5.8 h. Also, the clearance in [11] worked out at 6.6 mL/min/kg. Also, the Vd in [12] stood at 2.3 L/kg. Besides, the bioavailability in data set [13] amounted to 60%.
Regarding `COc1cc(F)c(-c2ccc(C(=O)O)cc2C)cc1-c1ccc(C(F)(F)F)cc1[C@@H]1CC[C@H]2[C@@H](c3cc(C)cc(C(F)(F)F)c3)OC(=O)N12`, in data set [14], the Stabilty entry was “Unstable”.
The molecule `COc1ccc(-c2ccc(C(=O)O)cc2C)cc1-c1cnc(N(C)C)nc1[C@@H]1CC[C@H]2[C@@H](c3cc(C(F)(F)F)cc(C(F)(F)F)c3)OC(=O)N12` yielded an AUC/dose in data set [9] of 0.7 µM·h. This molecule also had an MRT in data set [10] of 2.8 h. The clearance in [11] came out at 33 mL/min/kg. In addition, the Vd in data set [12] was 5.6 L/kg. Besides, the bioavailability in data set [13] was determined as 140%.
`COc1ncc(-c2c(C)cc(C(=O)O)cc2C)cc1-c1ccc(C(F)(F)F)cc1[C@@H]1CC[C@H]2[C@@H](c3cc(F)cc(C(F)(F)F)c3)OC(=O)N12` gave a pH-dependent lipophilicity (logD) in data set [7] of 4.8. In data set [14], the Stabilty entry is reported as “Unstable”.
With `COc1ccc(-c2ccc(C(=O)O)cc2C)cc1-c1cnc(C(C)(F)F)nc1CN1C(=O)O[C@H](c2cc(C(F)(F)F)cc(C(F)(F)F)c2)[C@@H]1C`, the logD in [7] is 4.6. Besides, in data set [8], the solubility (thermodynamic) came to 20 µM (≈ 14.2 µg/mL).
Taken in the same sequence, the figures for `COc1ncc(-c2ccc(C(=O)O)cc2C)cc1-c1ccc(C(F)(F)F)nc1CN1C(=O)O[C@H](c2cc(C(F)(F)F)cc(C(F)(F)F)c2)[C@@H]1C` were 5.1 and 9 µM (≈ 6.42 µg/mL).
`COc1ccc(-c2ccc(C(=O)O)cc2C)cc1-c1cnc(N(C)C)nc1CN1C(=O)O[C@H](c2cc(C(F)(F)F)cc(C(F)(F)F)c2)[C@@H]1C` registered a logD in data set [7] of 4.8. The thermodynamic solubility in data set [8] was 43 µM (≈ 29.6 µg/mL).
The molecule `COc1ccc(-c2ccc(C(=O)O)cc2C)cc1-c1cc(C(C)C)c(N(C)C)nc1[C@@H]1CC[C@H]2[C@@H](c3cc(C(F)(F)F)cc(C(F)(F)F)c3)OC(=O)N12` showed a logD in data set [7] of 6.6. In [14], the Stabilty result is on record as “Unstable”.
For `COc1ccc(-c2ccc(C(=O)O)cc2C)cc1-c1cnc(C(F)(F)F)nc1CN1C(=O)O[C@H](c2cc(C(F)(F)F)cc(C(F)(F)F)c2)[C@@H]1C`, the logD in data set [7] was determined as 4.9. The same molecule came in with a thermodynamic solubility in data set [8] of 6 µM (≈ 4.28 µg/mL).
Taken in the same sequence, the figures for `COc1ncc(-c2ccc(C(=O)O)cc2C)cc1-c1cc(C(F)(F)F)c(OC)nc1CN1C(=O)O[C@H](c2cc(C(F)(F)F)cc(C(F)(F)F)c2)[C@@H]1C` were 5.7 and 5 µM (≈ 3.72 µg/mL).
Taken in the same sequence, the figures for `COc1ccc(-c2ccc(C(=O)O)cc2C)cc1-c1cnc(N2CC(F)C2)nc1CN1C(=O)O[C@H](c2cc(C(F)(F)F)cc(C(F)(F)F)c2)[C@@H]1C` were 4.6 and 8 µM (≈ 5.75 µg/mL).
As to `COc1ccc(-c2ccc(C(=O)O)cc2C)cc1-c1ccc(C(F)(F)F)cc1CN1C(=O)O[C@H](c2cc(C(F)(F)F)cc(C(F)(F)F)c2)[C@@H]1C`, the solubility in data set [1] stood at 16 µM (≈ 11.4 µg/mL). Further, in data set [2], the Cmax was 430 nM. The AUC/dose in data set [3] amounted to 0.86 µM·kg·h/mg. Further, the clearance in data set [4] was determined as 18 mL/min/kg. For the same molecule, the half-life in [5] was 2.5 h. In addition, in [6], the bioavailability is 65%.
As for `Cc1cc(C(=O)O)ccc1-c1ccc(Cl)c(-c2ccc(C(F)(F)F)cc2CN2C(=O)O[C@H](c3cc(C(F)(F)F)cc(C(F)(F)F)c3)[C@@H]2C)c1`, in data set [1], the solubility came to 43 µM (≈ 30.8 µg/mL). The same molecule returned a Cmax in [2] of 390 nM. The molecule further came in with an AUC/dose in [3] of 1.8 µM·kg·h/mg. The molecule also had a clearance in [4] of 5.6 mL/min/kg. Also, the half-life is 62 h in [5] and 83 h in data set [15]. Moreover, in [6], the bioavailability was 43%. In addition, the pH-dependent lipophilicity (logD) in data set [7] was found to be 6.2. The molecule also gave a solubility (thermodynamic) in [8] of 43 µM (≈ 30.8 µg/mL).
In data set [7], `COc1ncc(-c2cc(-c3ccc(C(=O)O)cc3C)ccc2OC)c(CN2C(=O)O[C@H](c3cc(C(F)(F)F)cc(C(F)(F)F)c3)[C@@H]2C)n1` gave a logD of 4.2. Also, in [8], the thermodynamic solubility was 52 µM (≈ 35.1 µg/mL).
In the case of `COc1cc(F)c(C(C)C)cc1-c1ccc(C(F)(F)F)cc1CN1C(=O)O[C@H](c2cc(C(F)(F)F)cc(C(F)(F)F)c2)[C@@H]1C` [ANACETRAPIB], the solubility in data set [1] is below 1 µM. The AUC/dose in data set [3] was determined as 0.36 µM·kg·h/mg. The half-life in data set [16] was 3.6 h. Further, the “beta t1/2” value in [17] amounted to 121 h; in [19] it was 49 h; in data set [20], 150 h. This molecule displayed a logD in data set [7] above 6.9. For the same molecule, in [18], the half-life at […] is 27 h.
Consider `Cc1cc(C)c2c(c1)[C@@H](N(Cc1cc(C(F)(F)F)cc(C(F)(F)F)c1)c1nnn(C)n1)CCCN2C[C@H]1CC[C@H](C(=O)O)CC1` [EVACETRAPIB], for which the figures for the half-life at […] in [21], in [22] and in data set [23] were 7.1 h, 18 h and 1.3 h, respectively.

Values taken from ChEMBL document CHEMBL4842348 (J Med Chem, 2021).
